# Source: ChEMBL document CHEMBL4002586, “Aurone Mannich base derivatives as promising multifunctional agents with acetylcholinesterase inhibition, anti-β-amyloid aggragation and neuroprotective properties for the treatment of Alzheimer's disease” (Eur J Med Chem, 2017)
# Activity calls are given as the source filed them. The rule behind the calls is not given here.
# Columns and labels:
# [1] = target: T1, Acetylcholinesterase (Rattus norvegicus, UniProt P37136); assay: Inhibition of AChE in rat brain cortex homogenates using acetylthiocholine iodide as substrate in presence of BuChE inhibitor tetraisopropyl pyrophosphoramide measured after 15 mins by Ellman's method
# T1 sequence (P37136 whole entry): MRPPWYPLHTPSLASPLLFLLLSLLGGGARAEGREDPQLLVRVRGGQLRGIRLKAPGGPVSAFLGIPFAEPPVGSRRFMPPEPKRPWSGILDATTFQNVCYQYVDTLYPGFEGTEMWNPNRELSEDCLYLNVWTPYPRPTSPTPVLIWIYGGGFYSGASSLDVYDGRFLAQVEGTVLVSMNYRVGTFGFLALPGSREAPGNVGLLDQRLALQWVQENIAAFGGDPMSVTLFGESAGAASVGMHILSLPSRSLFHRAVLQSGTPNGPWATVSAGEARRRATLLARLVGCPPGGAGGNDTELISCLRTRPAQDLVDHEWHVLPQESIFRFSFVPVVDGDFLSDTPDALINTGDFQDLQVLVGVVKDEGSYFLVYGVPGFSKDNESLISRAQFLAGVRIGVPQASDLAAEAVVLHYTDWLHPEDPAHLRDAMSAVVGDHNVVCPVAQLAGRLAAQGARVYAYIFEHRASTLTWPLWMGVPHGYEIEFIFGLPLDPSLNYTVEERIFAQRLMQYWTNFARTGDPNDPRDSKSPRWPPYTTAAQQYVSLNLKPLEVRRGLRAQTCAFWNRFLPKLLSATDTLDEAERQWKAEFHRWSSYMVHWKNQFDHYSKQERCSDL
# [2] = target: Acetylcholinesterase (Electrophorus electricus, UniProt O42275); assay: Inhibition of Electrophorus electricus AChE using acetylthiocholine iodide as substrate measured after 15 mins by Ellman's method
# [3] = target: butyrylcholinesterase (BuChE) (Rattus norvegicus, UniProt Q9JKC1); assay: Inhibition of BuChE in rat serum at 50 uM using butyrylthiocholine as substrate measured after 15 mins by Ellman's method relative to control; conditions: probe butyrylthiocholine
# [4] = Antioxidant activity assessed as inhibition of AAPH-induced peroxyl radical generation at 5 uM measured as trolox equivalent preincubated for 15 mins followed by AAPH addition measured every 60 secs for 90 mins by ORAC-FL assay; assay type: functional
# [5] = target: Amyloid-beta precursor protein (Homo sapiens) (UniProt P05067); assay: Inhibition of self-induced aggregation of HFIP-treated human amyloid beta (1 to 42 residues) at 25 uM after 24 hrs by thioflavin T-based fluorometric assay relative to control
# [6] = Inhibition of Cu2+-mediated aggregation of human amyloid beta (1 to 42 residues) at 25 uM after 24 hrs by thioflavin T-based fluorometric assay relative to control; assay type: functional
# [7] = target: T2, Amine oxidase [flavin-containing] A (Homo sapiens, UniProt P21397); assay: Inhibition of recombinant human MAO-A expressed in baculovirus infected BTI insect cells at 10 uM using kynuramine as substrate incubated for 30 mins by fluorescence assay relative to control; conditions: 0.5 h
# T2 sequence (P21397 whole entry): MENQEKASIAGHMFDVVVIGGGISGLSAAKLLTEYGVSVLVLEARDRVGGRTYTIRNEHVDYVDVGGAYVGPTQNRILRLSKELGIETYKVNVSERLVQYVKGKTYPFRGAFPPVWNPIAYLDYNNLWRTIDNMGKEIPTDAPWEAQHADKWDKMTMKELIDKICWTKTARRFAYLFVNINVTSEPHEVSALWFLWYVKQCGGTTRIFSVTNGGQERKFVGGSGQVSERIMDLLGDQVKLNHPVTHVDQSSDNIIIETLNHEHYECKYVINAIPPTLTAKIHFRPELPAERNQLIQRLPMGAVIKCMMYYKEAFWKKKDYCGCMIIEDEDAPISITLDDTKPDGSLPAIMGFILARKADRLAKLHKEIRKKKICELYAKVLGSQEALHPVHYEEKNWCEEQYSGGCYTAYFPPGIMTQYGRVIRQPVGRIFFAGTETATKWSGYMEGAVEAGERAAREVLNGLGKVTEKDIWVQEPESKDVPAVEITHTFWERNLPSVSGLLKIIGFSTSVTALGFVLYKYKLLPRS
# [8] = target: T3, Amine oxidase [flavin-containing] B (Homo sapiens, UniProt P27338); assay: Inhibition of recombinant human MAO-B expressed in baculovirus infected BTI insect cells at 10 uM using kynuramine as substrate incubated for 30 mins by fluorescence assay relative to control; conditions: 0.5 h
# T3 sequence (P27338 whole entry): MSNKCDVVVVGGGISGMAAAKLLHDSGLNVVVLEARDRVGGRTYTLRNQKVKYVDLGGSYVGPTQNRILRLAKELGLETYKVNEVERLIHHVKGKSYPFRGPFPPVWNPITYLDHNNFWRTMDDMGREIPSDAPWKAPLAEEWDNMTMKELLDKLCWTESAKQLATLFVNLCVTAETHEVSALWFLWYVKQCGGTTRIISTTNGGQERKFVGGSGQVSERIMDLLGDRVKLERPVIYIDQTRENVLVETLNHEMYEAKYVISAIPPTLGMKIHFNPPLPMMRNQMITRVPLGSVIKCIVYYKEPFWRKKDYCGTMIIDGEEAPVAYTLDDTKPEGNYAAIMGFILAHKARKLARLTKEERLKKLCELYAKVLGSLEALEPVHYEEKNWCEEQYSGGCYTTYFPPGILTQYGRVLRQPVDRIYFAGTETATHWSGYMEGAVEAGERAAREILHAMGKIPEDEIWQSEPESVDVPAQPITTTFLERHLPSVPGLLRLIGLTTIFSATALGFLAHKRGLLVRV
# [9] = target: Acetylcholinesterase (Homo sapiens, UniProt P22303); assay: Inhibition of human erythrocyte AChE using acetylthiocholine iodide as substrate measured after 15 mins by Ellman's method
# [10] = Metal chelating activity assessed as compound-Zn2+ complex formation at 37.5 uM in presence of ZnCl2 after 30 mins by UV-visible spectrophotometric analysis; assay type: functional
# [11] = Metal chelating activity assessed as compound-Cu2+ complex formation at 37.5 uM in presence of CuCl2 after 30 mins by UV-visible spectrophotometric analysis; assay type: functional
# [12] = Metal chelating activity assessed as compound-Al3+ complex formation at 37.5 uM in presence of AlCl3 after 30 mins by UV-visible spectrophotometric analysis; assay type: functional
# [13] = Metal chelating activity assessed as compound-Fe2+ complex formation at 37.5 uM in presence of FeSO4 after 30 mins by UV-visible spectrophotometric analysis; assay type: functional
# [14] = Metal chelating activity assessed as mole fraction of compound required to show 1:1 stoichiometry for Cu2+-compound complex at 37.5 uM after 30 mins by UV-vis spectrophotometric method; assay type: functional
# [15] = Permeability of compound at 100 ug/ml after 18 hrs by PAMPA; assay type: physicochemical; conditions: read-out: permeability
# Acetylcholinesterase (Homo sapiens, UniProt P22303), sequence (P22303 whole entry): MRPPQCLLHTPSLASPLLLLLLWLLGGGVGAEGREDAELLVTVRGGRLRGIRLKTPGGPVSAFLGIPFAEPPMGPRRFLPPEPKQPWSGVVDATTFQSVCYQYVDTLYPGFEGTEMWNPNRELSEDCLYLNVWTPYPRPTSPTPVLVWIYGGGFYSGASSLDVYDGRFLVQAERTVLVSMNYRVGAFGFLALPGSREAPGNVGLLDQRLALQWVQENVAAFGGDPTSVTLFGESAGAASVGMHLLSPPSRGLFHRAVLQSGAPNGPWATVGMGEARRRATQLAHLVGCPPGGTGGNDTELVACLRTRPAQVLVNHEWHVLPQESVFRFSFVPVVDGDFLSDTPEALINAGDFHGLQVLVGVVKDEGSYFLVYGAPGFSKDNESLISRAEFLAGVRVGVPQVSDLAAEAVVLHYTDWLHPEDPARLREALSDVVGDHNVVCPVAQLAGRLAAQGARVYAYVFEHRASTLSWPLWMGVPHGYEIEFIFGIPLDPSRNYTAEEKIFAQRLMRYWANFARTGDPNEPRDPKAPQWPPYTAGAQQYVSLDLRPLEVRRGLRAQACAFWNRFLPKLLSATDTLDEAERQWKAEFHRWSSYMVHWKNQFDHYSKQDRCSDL
# Acetylcholinesterase (Electrophorus electricus, UniProt O42275), sequence (O42275 whole entry): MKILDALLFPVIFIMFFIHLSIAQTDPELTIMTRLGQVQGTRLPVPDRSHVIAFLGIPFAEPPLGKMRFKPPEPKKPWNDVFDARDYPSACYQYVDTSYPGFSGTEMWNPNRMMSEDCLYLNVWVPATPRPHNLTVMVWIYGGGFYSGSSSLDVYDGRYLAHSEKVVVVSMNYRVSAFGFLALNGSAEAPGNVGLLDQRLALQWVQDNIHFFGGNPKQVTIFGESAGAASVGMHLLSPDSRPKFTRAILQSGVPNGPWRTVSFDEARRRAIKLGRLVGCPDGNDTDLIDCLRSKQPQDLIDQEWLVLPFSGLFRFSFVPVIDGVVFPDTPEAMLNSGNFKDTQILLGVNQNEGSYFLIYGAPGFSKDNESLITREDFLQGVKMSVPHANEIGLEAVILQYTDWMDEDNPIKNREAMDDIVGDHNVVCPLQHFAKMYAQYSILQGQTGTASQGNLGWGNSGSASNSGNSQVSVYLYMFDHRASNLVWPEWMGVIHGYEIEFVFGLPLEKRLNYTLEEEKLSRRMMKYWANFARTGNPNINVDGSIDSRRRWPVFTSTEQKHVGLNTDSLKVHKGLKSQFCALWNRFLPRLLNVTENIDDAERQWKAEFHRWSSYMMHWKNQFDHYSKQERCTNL
# Amyloid-beta precursor protein (Homo sapiens), sequence (P05067 whole entry, the tested form may be a part): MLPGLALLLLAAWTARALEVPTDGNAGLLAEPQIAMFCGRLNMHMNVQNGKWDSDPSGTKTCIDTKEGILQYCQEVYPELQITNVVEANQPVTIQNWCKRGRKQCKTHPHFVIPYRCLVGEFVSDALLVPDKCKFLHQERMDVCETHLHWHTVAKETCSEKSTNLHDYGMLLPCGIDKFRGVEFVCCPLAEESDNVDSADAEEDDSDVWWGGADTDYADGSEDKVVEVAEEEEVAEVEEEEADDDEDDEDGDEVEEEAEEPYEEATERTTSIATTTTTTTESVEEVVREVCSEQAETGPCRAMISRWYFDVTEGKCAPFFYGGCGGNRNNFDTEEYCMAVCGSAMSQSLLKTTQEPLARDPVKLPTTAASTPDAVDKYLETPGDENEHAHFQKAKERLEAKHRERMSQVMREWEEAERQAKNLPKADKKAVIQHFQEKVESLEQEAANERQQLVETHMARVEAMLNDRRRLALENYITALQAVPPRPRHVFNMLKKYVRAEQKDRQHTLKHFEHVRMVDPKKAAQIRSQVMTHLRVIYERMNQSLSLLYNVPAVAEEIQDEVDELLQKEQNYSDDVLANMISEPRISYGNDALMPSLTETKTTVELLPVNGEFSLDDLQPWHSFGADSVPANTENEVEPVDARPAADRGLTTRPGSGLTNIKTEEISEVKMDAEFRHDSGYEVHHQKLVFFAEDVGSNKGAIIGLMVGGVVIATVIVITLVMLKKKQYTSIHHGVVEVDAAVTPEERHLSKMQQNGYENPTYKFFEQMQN
# butyrylcholinesterase (BuChE), sequence (Q9JKC1 whole entry): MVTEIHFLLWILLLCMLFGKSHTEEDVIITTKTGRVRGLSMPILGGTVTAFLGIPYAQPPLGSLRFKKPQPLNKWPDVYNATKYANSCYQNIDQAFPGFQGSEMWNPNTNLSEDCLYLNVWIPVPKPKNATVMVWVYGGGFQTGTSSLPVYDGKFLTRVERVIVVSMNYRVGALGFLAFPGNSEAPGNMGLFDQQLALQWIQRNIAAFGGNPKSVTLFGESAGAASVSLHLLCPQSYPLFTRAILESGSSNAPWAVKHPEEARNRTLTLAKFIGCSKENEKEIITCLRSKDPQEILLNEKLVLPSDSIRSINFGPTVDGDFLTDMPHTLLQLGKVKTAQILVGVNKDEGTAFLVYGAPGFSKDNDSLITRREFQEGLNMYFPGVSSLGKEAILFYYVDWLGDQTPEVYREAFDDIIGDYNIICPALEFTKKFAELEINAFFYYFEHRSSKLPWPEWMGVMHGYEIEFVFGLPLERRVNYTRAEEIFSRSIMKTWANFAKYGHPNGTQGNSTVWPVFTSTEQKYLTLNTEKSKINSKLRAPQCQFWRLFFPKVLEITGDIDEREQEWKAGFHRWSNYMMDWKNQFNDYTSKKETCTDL
compound,measurement,setting,value
CCN(Cc1ccccc1)Cc1ccc(/C=C2\Oc3cc(OC)c(OC)cc3C2=O)cc1O,IC50,[1],94.1 µM
same,IC50,[2],35.8 µM
same,"inhibition at 0.25 h, 50 µM",[3],< 5%
same,Activity,[4],1.17 equiv
same,inhibition,[5],72.5%
same,inhibition,[6],60.9%
same,inhibition at 10 µM,[7],17%
same,inhibition at 10 µM,[8],23.9%
COc1cc2c(cc1OC)C(=O)/C(=C/c1ccc(CN(C)Cc3ccccc3)c(O)c1)O2,IC50,[1],20 µM
same,IC50,[2],9.1 µM
same,IC50,[9],26.3 µM
same,"inhibition at 0.25 h, 50 µM",[3],< 5%
same,Activity,[4],1.62 equiv
same,inhibition,[5],51.5%
same,inhibition,[6],70.1%
same,inhibition at 10 µM,[7],19.4%
same,inhibition at 10 µM,[8],17.8%
COc1ccccc1CN(C)Cc1ccc(/C=C2\Oc3cc(OC)c(OC)cc3C2=O)cc1O,IC50,[1],74.4 µM
same,IC50,[2],28.9 µM
same,"inhibition at 0.25 h, 50 µM",[3],< 5%
same,Activity,[4],1.35 equiv
same,inhibition,[5],55.1%
same,inhibition,[6],55.8%
same,inhibition at 10 µM,[7],16.3%
same,inhibition at 10 µM,[8],8.4%
COc1cc2c(cc1OC)C(=O)/C(=C/c1ccc(CN(C)C)c(O)c1)O2,IC50,[1],25.8 µM
same,IC50,[2],8.93 µM
same,IC50,[9],24.3 µM
same,"inhibition at 0.25 h, 50 µM",[3],< 5%
same,Activity,[4],2.02 equiv
same,inhibition,[5],46.9%
same,inhibition,[6],32.2%
same,inhibition at 10 µM,[7],20.2%
same,inhibition at 10 µM,[8],2.23%
CCN(Cc1ccc(/C=C2\Oc3cc(OC)c(OC)cc3C2=O)cc1O)Cc1ccccc1N(C)C,IC50,[1],7.32 µM
same,IC50,[2],6.4 µM
same,IC50,[9],6.69 µM
same,"inhibition at 0.25 h, 50 µM",[3],19.6%
same,Activity,[4],1.56 equiv
same,Activity,[10],Active
same,Activity,[11],Active
same,Activity,[12],Active
same,Activity,[13],Active
same,Activity,[14],0.98 molar ratio
same,inhibition,[5],78.3%
same,inhibition,[6],72.6%
same,inhibition at 10 µM,[7],15.3%
same,inhibition at 10 µM,[8],38.1%
same,"Papp at 18 h, 100 ug/ml",[15],12.2 ×10⁻⁶ cm/s
CCN(CC)Cc1ccc(/C=C2\Oc3cc(OC)c(OC)cc3C2=O)cc1O,IC50,[1],0.108 µM
same,IC50,[2],0.486 µM
same,IC50,[9],0.7 µM
same,"inhibition at 0.25 h, 50 µM",[3],< 5%
same,Activity,[4],2.06 equiv
same,inhibition,[5],47.5%
same,inhibition,[6],23.6%
same,inhibition at 10 µM,[7],22.7%
same,inhibition at 10 µM,[8],7.2%
CCN1CCN(Cc2ccc(/C=C3\Oc4cc(OC)c(OC)cc4C3=O)cc2O)CC1,IC50,[1],24 µM
same,IC50,[2],11.7 µM
same,IC50,[9],32.1 µM
same,"inhibition at 0.25 h, 50 µM",[3],< 5%
same,Activity,[4],1.61 equiv
same,inhibition,[5],49.1%
same,inhibition,[6],39.7%
same,inhibition at 10 µM,[7],15.1%
same,inhibition at 10 µM,[8],2.6%
COc1cc(/C=C/C(=O)CC(=O)/C=C/c2ccc(O)c(OC)c2)ccc1O,inhibition,[6],67.2%
COc1cc2c(cc1OC)C(=O)/C(=C/c1ccc(CN3CCOCC3)c(O)c1)O2,IC50,[1],8.66 µM
same,IC50,[2],20.2 µM
same,IC50,[9],6 µM
same,"inhibition at 0.25 h, 50 µM",[3],< 5%
same,Activity,[4],1.58 equiv
same,inhibition,[5],31.5%
same,inhibition,[6],28.5%
same,inhibition at 10 µM,[7],12.1%
same,inhibition at 10 µM,[8],3.3%
